Tests used:
Format in all cases: in vivo, Wistar rats
TIMP-1 = test: Bleomycin pulmonary fibrosis rat model: TIMP-1 expression in lung tissue; conditions: after 14 days of treatment, tail vein 3 mg/kg·d, n = 6, x ± s
Protocol: (§1) Rats were numbered according to their body weight and divided into groups according to their body weight by random arrangement table method, and divided into small molecule compound treatment group (tail vein injection of PCSK9 small molecule compound inhibitor, 3 mg/kg·d), siPcsk9 treatment group (Tail vein injection of PCSK9 small interfering RNA, 3 mg/kg·d), monoclonal antibody treatment group (tail vein injection of PCSK9 monoclonal antibody, 3 mg/kg·d), peptide treatment group (tail vein injection of PCSK9 polypeptide inhibitor, 3 mg/kg·d), model group (injection of physiological saline into tail vein, 3 mg/kg·d), and blank control group (injection of physiological saline into tail vein, 3 mg/kg·d), 12 animals in each group, half male and half female. Rats in each group were anesthetized by intraperitoneal injection of 2% sodium pentobarbital ([…]), fixed on the operating table, and injected into the neck trachea. The control group was injected with normal saline (1.25 ml/kg), and the model group and each treatment group were injected with 5 U/mL bleomycin solution (5 mg/kg). […]
(§2) Peripheral venous blood was collected from the tail vein of animals in each group after modeling and 14 days after treatment, and the levels of superoxide dismutase (SOD) and catalase (CAT) in peripheral blood were detected. […]

MMP-2 = test: Bleomycin pulmonary fibrosis rat model: MMP-2 expression in lung tissue; conditions: after 14 days of treatment, tail vein 3 mg/kg·d, n = 6, x ± s
Protocol: as §1, §2

MMP-9 = test: Bleomycin pulmonary fibrosis rat model: MMP-9 expression in lung tissue; conditions: after 14 days of treatment, tail vein 3 mg/kg·d, n = 6, x ± s
Protocol: as §1, §2

VEGF protein = test: Bleomycin pulmonary fibrosis rat model: VEGF protein in lung tissue by ELISA; conditions: n = 6, x ± s
Protocol: as §1, §2

VEGF-mRNA = test: Bleomycin pulmonary fibrosis rat model: VEGF-mRNA in lung tissue by reverse transcription PCR; conditions: n = 6, x ± s
Protocol: as §1, §2

[1] = system: superoxide dismutase (SOD); test: Bleomycin pulmonary fibrosis rat model: SOD in peripheral blood; conditions: n = 6, x ± s
Protocol: as §1, §2

catalase (CAT) = test: Bleomycin pulmonary fibrosis rat model: CAT in peripheral blood; conditions: n = 6, x ± s
Protocol: as §1, §2

[2] = after modeling (before the 14 days of treatment)
[3] = tail vein 3 mg/kg·d once a day for 14 days

SMILES: COc1ccc(CCC(=O)N(c2nccc3ccccc23)[C@@H]2CCCNC2)cc1 [Compound group 1, R-IMPP]
- TIMP-1 (TIMP-1): 8.56 ± 0.58
- MMP-2 (MMP-2): 2.67 ± 0.32
- MMP-9 (MMP-9): 3.43 ± 0.34
- VEGF protein, 14 days after modeling (VEGF protein; [2]): 38.47 ± 3.23 pg/mL
- VEGF protein, 14 days after treatment (VEGF protein; [3]): 57.61 ± 3.86 pg/mL
- VEGF-mRNA, 14 days after modeling (VEGF-mRNA; [2]): 0.53 ± 0.16
- VEGF-mRNA, 14 days after treatment (VEGF-mRNA; [3]): 0.85 ± 0.16
- SOD, 14 days after modeling [1, 2]: 171.45 ± 13.92 U/ml
- SOD, 14 days after treatment [1, 3]: 218.56 ± 14.36 U/ml
- CAT, 14 days after modeling (catalase (CAT); [2]): 9.43 ± 2.31 kU/g
- CAT, 14 days after treatment (catalase (CAT); [3]): 14.45 ± 1.51 kU/g

From patent US20230346773A1, “USE OF PCSK9 INHIBITOR IN PREPARATION OF PRODUCT FOR TREATING MULTIPLE DISEASES” (priority 2020, published 2023)
